According to US10004702B2, “Linear guanidine derivatives, methods of preparation and uses thereof” (LEAD DISCOVERY SIENA S.R.L., priority 2014, dated 2018):
In brackets after ≈: the same amount, converted by molar mass. Like-named read-outs stand apart in the source and are kept apart here.

What was measured:
[1] = system: Acinetobacter baumannii AC-54/97 (IMP-2); test: Antimicrobial susceptibility testing, MIC by microdilution broth method; assay type: cell-based; details: Acinetobacter baumannii AC-54/97 (IMP-2), Tables 2 and 3
Experimental: (§1) Bacterial strains were obtained from the ATCC or CCUG culture collections or present in the authors' collection of clinical isolates. Compounds were re-suspended in dimethyl sulfoxyde (DMSO) at a final concentration of 10 mg/ml and subsequently diluted in the culture medium. The minimum inhibitory concentrations (MICs) of the compounds of the invention were determined using the microdilution broth method using Mueller-Hinton broth as recommended by the Clinical Laboratory Standards Institute (CLSI [11]). Bacterial inoculum was 5×10^4 CFU/well. MICs were recorded after 18-24 hours incubation at 35-37° C.
(§2) The Antibacterial activity of compound 28 was also tested on a panel of Gram-negative and Gram-positive clinical isolates, showing various antimicrobial susceptibility profiles (Table 4). The class of drugs for which the isolate was resistant to is indicated in column 2 (PEN, penicillins; ES-CEPH, expanded-spectrum cephalosporins; CARB, carbapenems; AZT; aztreonam; AG, aminoglycosides; FQ, fluoroquinolones; SXT, trimethoprim/sulfamethoxazole; FOS, fosfomycin; GLY, glycopeptides; LNZ, linezolid; COL-R, colistin resistant; COL-S colistin sensitive; PDR, poly-drug resistant).

Burkholderia cepacia RII = test: as above; assay type: cell-based; details: Mueller-Hinton broth, 18-24 hours at 35-37° C.
Experimental: as §1

[2] = system: Pseudomonas aeruginosa ATCC 27853; test: as above; assay type: cell-based; details: 18-24 hours at 35-37° C.
Experimental: as §1

[3] = system: Klebsiella pneumoniae ATCC 13833; test: as above; assay type: cell-based; details: 18-24 hours at 35-37° C.
Experimental: as §1

[4] = system: Stenotrophomonas maltophilia 634/08; test: as above; assay type: cell-based; details: Mueller-Hinton broth, 18-24 hours at 35-37° C.
Experimental: as §1

Escherichia coli CCUG^T = test: as above; assay type: cell-based; details: Mueller-Hinton broth, 18-24 hours at 35-37° C.
Experimental: as §1

[5] = system: Staphylococcus aureus ATCC 25923; test: as above; assay type: cell-based; details: 18-24 hours at 35-37° C.
Experimental: as §1

[6] = system: Achromobacter xylosoxidans AX 22; test: as above; assay type: cell-based; details: 18-24 hours at 35-37° C.
Experimental: as §1

[7] = system: Bacillus subtilis ATCC 6633; test: as above; assay type: cell-based; details: 18-24 hours at 35-37° C.
Experimental: as §1

[8] = system: Alcaligenes faecalis 424/98; test: as above; assay type: cell-based; details: Mueller-Hinton broth, 18-24 hours at 35-37° C.
Experimental: as §1

[9] = system: Chryseobacterium meningosepticum CCUG 4310; test: as above; assay type: cell-based; details: 18-24 hours at 35-37° C.
Experimental: as §1

[10] = system: Acinetobacter baumannii ATCC 17978; test: as above; assay type: cell-based; details: 18-24 hours at 35-37° C.
Experimental: as §1

[11] = system: Enterococcus faecalis ATCC 19433; test: as above; assay type: cell-based; details: 18-24 hours at 35-37° C.
Experimental: as §1

[12] = system: Klebsiella pneumoniae 081R; test: as above; assay type: cell-based; details: Tables 2 and 3
Experimental: as §1, §2

[13] = system: Enterobacter cloacae VA-417/02 (VIM-4); test: as above; assay type: cell-based; details: Enterobacter cloacae VA-417/02 (VIM-4); Tables 2 and 3
Experimental: as §1, §2

[14] = system: Gram-positive and Gram-negative organisms; test: Antimicrobial susceptibility testing, overall statements on the panel; assay type: cell-based; details: overall comparison over the tested strains
Experimental: as §1

Human Serum Albumin = Human Serum Albumin (Homo sapiens, UniProt P02768); test: Binding fluorimetric assay (tryptophan quenching); details: fixed concentration of HSA titrated with different amounts of compound
Experimental: The solutions were mixed and after allowing 30 minutes at room temperature to reach the equilibrium conditions, the spectra were recorded. […] The percentages obtained were plotted against the concentrations used and the KD values were calculated using GraphPad software (version 5.0).

[15] = ATCC27853, Mueller-Hinton broth, read-out: MIC
[16] = ATCC13833, Mueller-Hinton broth, read-out: MIC
[17] = ATCC25923, Mueller-Hinton broth, read-out: MIC
[18] = AX22, Mueller-Hinton broth, read-out: MIC
[19] = ATCC6633, Mueller-Hinton broth, read-out: MIC
[20] = Elizabethkingia meningoseptica, CCUG4310, Mueller-Hinton broth, read-out: MIC
[21] = ATCC17978, Mueller-Hinton broth, read-out: MIC
[22] = ATCC19433, Mueller-Hinton broth, read-out: MIC

Sequence of Human Serum Albumin (P02768 25-609): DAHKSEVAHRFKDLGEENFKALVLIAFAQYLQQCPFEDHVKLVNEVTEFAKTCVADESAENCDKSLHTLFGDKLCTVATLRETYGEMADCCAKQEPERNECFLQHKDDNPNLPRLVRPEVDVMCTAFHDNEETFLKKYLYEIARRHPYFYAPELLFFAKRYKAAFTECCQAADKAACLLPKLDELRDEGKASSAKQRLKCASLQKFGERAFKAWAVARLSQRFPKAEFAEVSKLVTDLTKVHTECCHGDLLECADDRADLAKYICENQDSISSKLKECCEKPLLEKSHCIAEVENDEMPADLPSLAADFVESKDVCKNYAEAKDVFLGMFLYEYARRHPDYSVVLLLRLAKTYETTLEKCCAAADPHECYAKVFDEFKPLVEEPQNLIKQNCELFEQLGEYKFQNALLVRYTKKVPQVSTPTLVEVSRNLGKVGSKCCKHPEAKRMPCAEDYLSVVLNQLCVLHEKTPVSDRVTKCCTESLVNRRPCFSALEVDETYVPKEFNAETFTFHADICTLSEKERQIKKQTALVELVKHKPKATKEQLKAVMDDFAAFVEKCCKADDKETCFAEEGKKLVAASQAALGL

N=C(N)NCCCCCCCCN(CCCCCCCCNC(=N)NCC1CC1)C(=O)NC(=N)NCCCCCCCCNCCCCCCCCNC(=N)NCC1CC1 [Compound 30, 1-(8-carbamimidamidooctyl)-1-[8-[[N-(cyclopropylmethyl)carbamimidoyl]amino]octyl]-3-[N-[8-[8-[[N-(cyclopropylmethyl)carbamimidoyl]amino]octylamino]octyl]carbamimidoyl]urea]
MIC ([1]; Acinetobacter baumannii, read-out: MIC): 32 µg/mL (≈ 37.9 µM)
MIC (Burkholderia cepacia RII; read-out: MIC): 128 µg/mL (≈ 151 µM)
MIC [2, 15]: > 256 µg/mL
MIC [3, 16]: > 256 µg/mL
MIC ([4]; read-out: MIC): > 256 µg/mL
MIC (Escherichia coli CCUG^T; read-out: MIC): > 256 µg/mL
MIC [5, 17]: 4 µg/mL (≈ 4.73 µM)
MIC [6, 18]: > 256 µg/mL
MIC [7, 19]: < 0.125 µg/mL
MIC ([8]; read-out: MIC): 32 µg/mL (≈ 37.9 µM)
MIC [9, 20]: > 256 µg/mL
MIC [10, 21]: > 256 µg/mL
MIC [11, 22]: 8 µg/mL (≈ 9.46 µM)

N=C(N)NCCCCCCCCN(CCCCCCCCNC(=N)NCC1CC1)C(=O)N(CCCCCCCCNC(=N)NCC1CC1)CCCCCCCCNC(=N)NC(=O)NCCCCCCCCNCCCCCCCCNC(=N)NCC1CC1 [Compound 32, 1,3-bis(8-(3-(cyclopropylmethyl)guanidino)octyl)-1-(8-guanidinooctyl)-3-(8-((3-(8-((8-(3-(cyclopropylmethyl))guanidinooctyl)amino)octyl)carbamoyl)guanidino)octyl)urea]
MIC [12]: 16 µg/mL (≈ 12.9 µM)
MIC [1]: 16 µg/mL (≈ 12.9 µM)
MIC [13]: 16 µg/mL (≈ 12.9 µM)
antimicrobial spectrum (in words) [14]: active against both Gram-positive and Gram-negative organisms
MIC (Burkholderia cepacia RII): 128 µg/mL (≈ 103 µM)
MIC ([2]; Mueller-Hinton broth): 32 µg/mL (≈ 25.8 µM)
MIC ([3]; Mueller-Hinton broth): 8 µg/mL (≈ 6.46 µM)
MIC [4]: 64 µg/mL (≈ 51.7 µM)
MIC (Escherichia coli CCUG^T): 8 µg/mL (≈ 6.46 µM)
MIC ([5]; Mueller-Hinton broth): 8 µg/mL (≈ 6.46 µM)
MIC ([6]; Mueller-Hinton broth): 64 µg/mL (≈ 51.7 µM)
MIC ([7]; Mueller-Hinton broth): 8 µg/mL (≈ 6.46 µM)
MIC [8]: 32 µg/mL (≈ 25.8 µM)
MIC ([9]; Mueller-Hinton broth): 64 µg/mL (≈ 51.7 µM)
MIC ([10]; Mueller-Hinton broth): 32 µg/mL (≈ 25.8 µM)
MIC ([11]; Mueller-Hinton broth): <0.125 µg/mL

NC(=O)N1c2ccccc2C=Cc2ccccc21 [CARBAMAZEPINE, Carbamazepine, reference compound]
intrinsic fluorescence decrease of HSA (Human Serum Albumin): remarkable intrinsic fluorescence decrease

N=C(N)NCCCCCCN(CCCCCCNC(=N)NCC1CC1)C(=O)N(CCCCCCNC(=N)N)CCCCCCNC(=N)NCC1CC1 [Compound 31, 1,3-bis(6-(3-(cyclopropylmethyl)guanidino)hexyl)-1,3-bis(6-guanidinohexyl)urea]
MIC (Burkholderia cepacia RII; read-out: MIC): > 256 µg/mL
MIC [2, 15]: 256 µg/mL (≈ 349 µM)
MIC [3, 16]: 32 µg/mL (≈ 43.6 µM)
MIC ([4]; read-out: MIC): > 256 µg/mL
MIC (Escherichia coli CCUG^T; read-out: MIC): 16 µg/mL (≈ 21.8 µM)
MIC [5, 17]: 4 µg/mL (≈ 5.46 µM)
MIC [6, 18]: > 256 µg/mL
MIC [7, 19]: 4 µg/mL (≈ 5.46 µM)
MIC ([8]; read-out: MIC): > 256 µg/mL
MIC [9, 20]: > 256 µg/mL
MIC [10, 21]: 128 µg/mL (≈ 175 µM)
MIC [11, 22]: 32 µg/mL (≈ 43.6 µM)

N=C(N)NCCCCCCN(CCCCCCNC(=N)NCC1CC1)C(=O)NC(=N)NCCCCCCNCCCCCCNC(=N)NCC1CC1 [Compound 33, 1-(6-carbamimidamidohexyl)-1-[6-[[N-(cyclopropylmethyl)carbamimidoyl]amino]hexyl]-3-[N-[6-[6-[[N (cyclopropylmethyl)carbamimidoyl]amino]hexylamino]hexyl]carbamimidoyl]urea]
MIC [1]: 8 µg/mL (≈ 10.9 µM)
MIC [13]: 64 µg/mL (≈ 87.3 µM)
MIC (Burkholderia cepacia RII): >256 µg/mL
MIC ([2]; Mueller-Hinton broth): >256 µg/mL
MIC ([3]; Mueller-Hinton broth): 64 µg/mL (≈ 87.3 µM)
MIC [4]: >256 µg/mL
MIC (Escherichia coli CCUG^T): 32 µg/mL (≈ 43.6 µM)
MIC ([5]; Mueller-Hinton broth): 16 µg/mL (≈ 21.8 µM)
MIC ([6]; Mueller-Hinton broth): >256 µg/mL
MIC ([7]; Mueller-Hinton broth): 8 µg/mL (≈ 10.9 µM)
MIC [8]: >256 µg/mL
MIC ([9]; Mueller-Hinton broth): >256 µg/mL
MIC ([10]; Mueller-Hinton broth): 256 µg/mL (≈ 349 µM)
MIC ([11]; Mueller-Hinton broth): 32 µg/mL (≈ 43.6 µM)
